From patent publication US20120231994A1, “ANTAGONISM OF HUMAN FORMYL PEPTIDE RECEPTOR FOR TREATMENT OF DISEASE” (NIKAN PHARMACEUTICALS, LLC, priority 2009, published 2012)

Tests used:
[1] = target: T1, hFPR (Homo sapiens, UniProt P21462); test: radionuclide binding competition assay using fMLF peptide as internal standard
T1 sequence (P21462 1-350): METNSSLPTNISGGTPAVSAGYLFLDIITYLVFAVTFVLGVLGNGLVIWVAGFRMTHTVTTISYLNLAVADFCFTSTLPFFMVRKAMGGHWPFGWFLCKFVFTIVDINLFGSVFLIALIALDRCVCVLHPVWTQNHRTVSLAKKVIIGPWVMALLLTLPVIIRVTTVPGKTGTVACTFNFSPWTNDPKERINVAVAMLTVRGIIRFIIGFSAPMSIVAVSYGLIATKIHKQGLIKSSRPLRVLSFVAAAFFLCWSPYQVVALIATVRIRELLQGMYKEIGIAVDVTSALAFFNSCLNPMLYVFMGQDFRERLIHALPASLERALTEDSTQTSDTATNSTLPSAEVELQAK
Text: Provided herein is the use of formyl peptide receptor antagonists in the therapy of diseases or disorders involving inappropriate, exaggerated, or prolonged neutrophil response (i.e. recruitment and/or activation). […] Thus the cyclosporins of this invention include dihydroCsH, as well as compounds of Formula I that maintain FPR inhibitory activity.

[2] = test system: Sprague-Dawley Rats; test: Multiple Oral Gavage Toxicity Study of Cyclosporin H in Sprague-Dawley Rats with Toxicokinetics, hematology; format: in vivo; details: animals to which CsH had been administered (see Table 1)
[3] = test system: calcineurin mediated signaling; details: cited from earlier work

IC50 [1] [nM] | Structure (SMILES) | circulating eosinophils [2] | effect on calcineurin mediated signaling [3]
7.99 | CCCC[C@@H](C)[C@@H](O)[C@H]1C(=O)N[C@@H](CC)C(=O)N(C)CC(=O)N(C)[C@@H](CC(C)C)C(=O)N[C@@H](C(C)C)C(=O)N(C)[C@@H](CC(C)C)C(=O)N[C@@H](C)C(=O)N[C@H](C)C(=O)N(C)[C@@H](CC(C)C)C(=O)N(C)[C@@H](CC(C)C)C(=O)N(C)[C@H](C(C)C)C(=O)N1C [dihydroCsH, Dihydrocyclosporin H] |  | 
 | C/C=C/C[C@@H](C)[C@@H](O)[C@H]1C(=O)N[C@@H](CC)C(=O)N(C)CC(=O)N(C)[C@@H](CC(C)C)C(=O)N[C@@H](C(C)C)C(=O)N(C)[C@@H](CC(C)C)C(=O)N[C@@H](C)C(=O)N[C@H](C)C(=O)N(C)[C@@H](CC(C)C)C(=O)N(C)[C@@H](CC(C)C)C(=O)N(C)[C@H](C(C)C)C(=O)N1C [CsH, Cyclosporine H] | significant decrease | no effect
